The source of these data is US11225642B2, “Method for producing renal progenitor cells” (KYOTO UNIVERSITY, priority 2013, dated 2022).

In experiment [1] the test system is OSR1-GFP & SIX2-tdTomato reporter human iPS cell line. The experiment can be described thus: SIX2-positive cell induction method 1, SIX2-tdTomato-positive cell rate by flow cytometer. In kind it is cell-based. As to conditions: induction method 1; stage 3 medium with 5 ng/ml TGFβ1 and 0.5 μM Dorsomorphin, 15 to 22 days. As for the experimental part:
The OSR1-GFP & SIX2-tdTomato reporter human iPS cell line obtained by the method in Example 1 was cultured at 37° C. in a 2-5% CO2 atmosphere to become confluent on 10-cm dishes containing a primate ES/iPS cell medium (ReproCELL) supplemented with 5 ng/ml bFGF (Wako) with the use of SNL cells (McMahon, A. P. and Bradley, A. (1990) Cell 62; 1073-1085) (the cells being treated with 15.5 μg/ml mitomycin (Kyowa Hakko Kirin Co., Ltd.) for 2 to 3 hours and seeded at a density of 3×10^5 cells/10-cm dish) as feeder cells. A CTK solution (2.5% Trypsin (Invitrogen), 1 mg/ml Collagenase IV (Invitrogen), 0.1 M CaCl2, 10 mL KnockOut SR (Invitrogen), and 29.5 mL H2O) was added to dissociate the cells. After removal of the feeder cells, the dissociated cells were suspended in a DMEM/F12 medium containing 1 μM CHIR99021 (Stemgent, 04-0004), 100 ng/ml Activin A (R&D Systems, 338-AC), 1% GlutaMAX (100×) (Invitrogen, 35050-061), 2% FBS (Hyclone), and 0.5% PenStrep (Invitrogen, 10565). Then, the cell suspensions were transferred to a low cell binding plate (LOW CELL BIND 6 WELL DISH (Nunc, 145383)) such that each well contained one-third to one-sixth of the cell suspension obtained from the 10-cm dish, followed by suspension culture at 37° C. in a 5% CO2 atmosphere for 2 days.
The cell mass obtained at stage 1 was transferred to a 24-well or 6-well dish coated with Matrigel (BD Matrigel Matrix Growth Factor Reduced (BD Biosciences, 356230) (the dish being coated with 0.2 mg/ml Matrigel in DMEM and treated at 37° C. for 30 minutes or at 4° C. overnight) or a 24-well or 6-well dish coated with Synthemax (Corning Synthemax II-SC Substrate (Corning, 3535XX1)) (the dish being coated with Synthemax diluted 40-fold with sterile water and treated at room temperature for 2 hours). The medium was exchanged with a DMEM/F12 medium containing 1 μM CHIR99021, 100 ng/ml BMP7 (Recombinant human BMP7 (R&D Systems, 3534-BP)), 0.1% 2-mercaptoethanol (1000×) (Invitrogen, 21985), 1% GlutaMAX (100×), 10% KnockOut SR (Invitrogen), 0.1 mM MEM NEAA (Invitrogen, 11140), and 0.5% PenStrep, followed by adhesion culture at 37° C. in a 5% CO2 atmosphere for 3 to 6 days. In the case of culture for 3 days or more, the medium was exchanged every 3 days with a medium having the same conditions.
The medium was removed from the cells obtained at stage 2. The cells were washed with PBS and then the medium was exchanged with a DMEM/F12 medium containing 5 ng/ml TGFβ1 (Peprotech, 100-21C), 0.5 μM Dorsomorphin (AMPK Inhibitor, Compound C (Merck, 171260)), 0.1% 2-mercaptoethanol (1000×), 1% GlutaMAX (100×), 10% KnockOut SR, 0.1 mM MEM NEAA, and 0.5% PenStrep, followed by suspension culture at 37° C. in a 5% CO2 atmosphere for 15 to 22 days. In this case, the medium was exchanged every 3 days with a medium having the same conditions.
At stage 3 of SIX2-positive cell induction method 1, Dorsomorphin was replaced with 100 ng/ml Noggin (Peprotech), 0.5 μM LDN193189 (Axon MedChem, 1509), or 0.5 μM DMH1 (Tocris, 4126) for differentiation induction in the aforementioned manner.
At stage 3 of SIX2-positive cell induction method 1, TGFβ1 was exchanged with 50 μM IDE1 (Tocris) or 50 μM IDE2 (Tocris) for differentiation induction in the aforementioned manner.
At stage 3 of SIX2-positive cell induction method 1, Dorsomorphin was replaced with 0.5 μM LDN193189, while TGFβ1 with 10 ng/ml TGFβ2 (Peprotech) or 10 ng/ml TGFβ3 (R&D), for differentiation induction in the aforementioned manner. As a result, the SIX2-positive cell rates were 8.6% and 9.3%, respectively (FIGS. 2G and 2H).

Experiment [2] shares this test system. The experiment can be described thus: SIX2-positive cell induction method 2, SIX2-tdTomato-positive cell rate by flow cytometer. In kind it is cell-based. To be noted: stage 3 medium with 5 ng/ml TGFβ1 and 0.5 μM Dorsomorphin, 12 to 22 days. The protocol: The OSR1-GFP & SIX2-tdTomato reporter human iPS cell line obtained by the method in Example 1 was cultured in the manner described in stage 1 of induction method 1 to become confluent on 10-cm dishes using SNL cells as feeder cells. A CTK solution was added to dissociate the cells. After removal of the feeder cells, the dissociated cells were suspended in a DMEM/F12 medium containing 1 μM TTNPB (Sigma, T3757), 1 μM CHIR99021, 1% GlutaMAX (100×), 2% FBS, and 0.5% PenStrep. Then, the cell suspensions were transferred to a low cell binding plate (LOW CELL BIND 6 WELL DISH) such that each well contained one-third to one-sixth of the cell suspension obtained from the 10-cm dish, followed by suspension culture at 37° C. in a 5% CO2 atmosphere for 2 days.
The cell mass obtained at stage 1 was transferred to dishes coated with Matrigel or dishes coated with Synthemax (prepared in the manner described in stage 2 of induction method 1). The medium was exchanged with a DMEM/F12 medium containing 1 μM TTNPB, 0.1% 2-mercaptoethanol (1000×), 1% GlutaMAX (100×), 10% KnockOut SR, 0.1 mM MEM NEAA, and 0.5% PenStrep, followed by adhesion culture at 37° C. in a 5% CO2 atmosphere for 3 to 9 days. In this case, the medium was exchanged every 3 days with a medium having the same conditions.
The medium was removed from the cells obtained at stage 2. […]

As for `c1cc(-c2cnn3cc(-c4ccc(OCCN5CCCCC5)cc4)cnc23)ccn1` [Dorsomorphin, 6-[4-(2-piperidin-1-yl-ethoxy)phenyl]-3-pyridin-4-yl-pyrazolo[1,5-a]pyrimidine], the SIX2-tdTomato-positive cell rate in experiment [1] is 21.5±2.0%; in experiment [2], 20.6±5.3%.
For “TGFβ1: TGFβ signaling activator protein (Peprotech)” the same measures were 21.5±2.0% and 20.6±5.3%.
